Source: US20250144094A1 (Erasca, Inc., priority 2021, published 2025)

Biological target: Recombinant human ULK1 (1-649) (Homo sapiens (Human), UniProt O75385)
Assay: ULK1 ADP Glo kinase activity assay, new method (ULKtide peptide substrate)
Conditions: 25° C., 40 minutes, read-out: ULK1 biochemical IC50
In short: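 GST-tagged human ULK1 (1-649) from Sf9 cells was reacted with ULKtide peptide and ATP for 40 min at 25 °C across 12-point compound dilutions from 10 μM. ADP formed was quantified by ADP-Glo luminescence; IC50 came from four-parameter fits relative to DMSO controls.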

Recombinant human ULK1 (1-649), sequence (O75385 1-649): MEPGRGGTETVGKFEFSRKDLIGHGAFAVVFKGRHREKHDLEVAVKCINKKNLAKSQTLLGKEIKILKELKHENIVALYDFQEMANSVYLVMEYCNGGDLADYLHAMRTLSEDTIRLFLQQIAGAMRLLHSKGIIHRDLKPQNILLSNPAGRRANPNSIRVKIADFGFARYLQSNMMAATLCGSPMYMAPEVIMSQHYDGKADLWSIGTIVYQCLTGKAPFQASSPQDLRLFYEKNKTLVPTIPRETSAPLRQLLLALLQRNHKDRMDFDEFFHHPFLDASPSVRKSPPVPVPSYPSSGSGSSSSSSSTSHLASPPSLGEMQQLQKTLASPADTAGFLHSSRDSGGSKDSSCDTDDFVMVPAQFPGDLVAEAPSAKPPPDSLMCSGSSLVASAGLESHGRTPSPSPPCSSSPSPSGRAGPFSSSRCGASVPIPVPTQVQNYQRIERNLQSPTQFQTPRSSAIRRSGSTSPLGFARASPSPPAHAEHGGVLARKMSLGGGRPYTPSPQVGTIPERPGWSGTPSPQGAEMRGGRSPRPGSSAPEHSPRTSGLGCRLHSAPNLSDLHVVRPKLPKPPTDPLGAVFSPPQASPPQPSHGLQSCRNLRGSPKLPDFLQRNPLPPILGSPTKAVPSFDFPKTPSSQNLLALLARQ

Q: How did the IC50 turn out when `CC(C)(F)CN1CCc2cc(Nc3ncc(C(F)(F)F)c(-c4cc5c(s4)C(=O)N(C4COC4)CCS5(=O)=O)n3)c(C3CC3)cc2C1` [Example 300, 7-(2-((7-cyclopropyl-2-(2-fluoro-2-methylpropyl)-1,2,3,4-tetrahydroisoquinolin-6-yl)amino)-5-(trifluoromethyl)pyrimidin-4-yl)-4-(oxetan-3-yl)-3,4-dihydrothieno[2,3-f][1,4]thiazepin-5(2H)-one 1,1-dioxide] was run?
A: 10 to 50 nM

Q: With `O=C1c2sc(-c3nc(Nc4cc5c(cc4C4CC4)CN(C4CC4)CC5)ncc3C(F)(F)F)cc2S(=O)(=O)CCN1C1COC1` [Example 301, 7-(2-((2,7-dicyclopropyl-1,2,3,4-tetrahydroisoquinolin-6-yl)amino)-5-(trifluoromethyl)pyrimidin-4-yl)-4-(oxetan-3-yl)-3,4-dihydrothieno[2,3-f][1,4]thiazepin-5(2H)-one 1,1-dioxide] as the compound, how does the IC50 read?
A: ≤ 5 nM

Q: Which IC50 does the source give for `CN1CCS(=O)(=O)c2cc(-c3nc(Nc4cc5c(cc4Cl)CNCC5)ncc3C(F)(F)F)sc2S1(=O)=O` [Example 302, 7-(2-((7-chloro-1,2,3,4-tetrahydroisoquinolin-6-yl)amino)-5-(trifluoromethyl)pyrimidin-4-yl)-2-methyl-3,4-dihydro-2H-thieno[3,2-f][1,5,2]dithiazepine 1,1,5,5-tetraoxide] here?
A: ≤ 5 nM

Q: `O=C1c2sc(-c3nc(Nc4cc5c(nc4C4CC4)CNCC5)ncc3C(F)(F)F)cc2S(=O)(=O)CCN1C1CC1` [Example 303, 4-cyclopropyl-7-(2-((2-cyclopropyl-5,6,7,8-tetrahydro-1,7-naphthyridin-3-yl)amino)-5-(trifluoromethyl)pyrimidin-4-yl)-3,4-dihydrothieno[2,3-f][1,4]thiazepin-5(2H)-one 1,1-dioxide] was tested. Which IC50 did it give?
A: ≤ 5 nM

Q: With `O=C1c2sc(-c3nc(Nc4cc5c(nc4C4CC4)CNCC5)ncc3C(F)(F)F)cc2S(=O)(=O)CCN1C1COC1` [Example 304, 7-(2-((2-cyclopropyl-5,6,7,8-tetrahydro-1,7-naphthyridin-3-yl)amino)-5-(trifluoromethyl)pyrimidin-4-yl)-4-(oxetan-3-yl)-3,4-dihydrothieno[2,3-f][1,4]thiazepin-5(2H)-one 1,1-dioxide] as the compound, how does the IC50 read?
A: ≤ 5 nM

Q: How did the IC50 turn out when `O=C1c2sc(-c3nc(Nc4ccc(N5C[C@@H]6C[C@H]5CN6)cc4C4CC4)ncc3C(F)(F)F)cc2S(=O)(=O)CCN1C1CC1` [Example 305, 7-(2-((4-((1S,4S)-2,5-diazabicyclo[2.2.1]heptan-2-yl)-2-cyclopropylphenyl)amino)-5-(trifluoromethyl)pyrimidin-4-yl)-4-cyclopropyl-3,4-dihydrothieno[2,3-f][1,4]thiazepin-5(2H)-one 1,1-dioxide] was run?
A: ≤ 5 nM

Q: How did the IC50 turn out when `CN1C[C@@H]2C[C@H]1CN2c1ccc(Nc2ncc(C(F)(F)F)c(-c3cc4c(s3)C(=O)N(C3CC3)CCS4(=O)=O)n2)c(C2CC2)c1` [Example 306, 4-Cyclopropyl-7-(2-((2-cyclopropyl-4-((1S,4S)-5-methyl-2,5-diazabicyclo[2.2.1]heptan-2-yl)phenyl)amino)-5-(trifluoromethyl)pyrimidin-4-yl)-3,4-dihydrothieno[2,3-f][1,4]thiazepin-5(2H)-one 1,1-dioxide] was run?
A: ≤ 5 nM

Q: For `O=C1c2sc(-c3nc(Nc4ccc(N5C[C@H]6CC[C@@H](C5)N6)cc4C4CC4)ncc3C(F)(F)F)cc2S(=O)(=O)CCN1C1CC1` [Example 307, 7-(2-((4-((1R,5S)-3,8-diazabicyclo[3.2.1]octan-3-yl)-2-cyclopropylphenyl)amino)-5-(trifluoromethyl)pyrimidin-4-yl)-4-cyclopropyl-3,4-dihydrothieno[2,3-f][1,4]thiazepin-5(2H)-one 1,1-dioxide], which IC50 is on record?
A: ≤ 5 nM

Q: With `C[C@@H]1CN(c2ccc(Nc3ncc(C(F)(F)F)c(-c4cc5c(s4)C(=O)N(C4CC4)CCS5(=O)=O)n3)c(C3CC3)c2)CCN1` [Example 308, (R)-4-cyclopropyl-7-(2-((2-cyclopropyl-4-(3-methylpiperazin-1-yl)phenyl)amino)-5-(trifluoromethyl)pyrimidin-4-yl)-3,4-dihydrothieno[2,3-f][1,4]thiazepin-5(2H)-one 1,1-dioxide] as the compound, how does the IC50 read?
A: ≤ 5 nM

Q: With `C[C@@H]1CN(c2ccc(Nc3ncc(C(F)(F)F)c(-c4cc5c(s4)C(=O)N(C4CC4)CCS5(=O)=O)n3)c(C3CC3)c2)CCN1C` [Example 309, (R)-4-cyclopropyl-7-(2-((2-cyclopropyl-4-(3,4-dimethylpiperazin-1-yl)phenyl)amino)-5-(trifluoromethyl)pyrimidin-4-yl)-3,4-dihydrothieno[2,3-f][1,4]thiazepin-5(2H)-one 1,1-dioxide] as the compound, how does the IC50 read?
A: ≤ 5 nM

Q: Which IC50 does the source give for `O=C1c2sc(-c3nc(Nc4ccc(N5C[C@@H]6C[C@H]5CN6)cc4C4CC4)ncc3C(F)(F)F)cc2S(=O)(=O)CCN1C1COC1` [Example 310, 7-(2-((4-((1S,4S)-2,5-diazabicyclo[2.2.1]heptan-2-yl)-2-cyclopropylphenyl)amino)-5-(trifluoromethyl)pyrimidin-4-yl)-4-(oxetan-3-yl)-3,4-dihydrothieno[2,3-f][1,4]thiazepin-5(2H)-one 1,1-dioxide] here?
A: ≤ 5 nM

Q: How did the IC50 turn out when `O=S1(=O)CCNS(=O)(=O)c2sc(-c3nc(Nc4cc5c(cc4C4CC4)CNCC5)ncc3C(F)(F)F)cc21` [Example 311, 7-(2-((7-cyclopropyl-1,2,3,4-tetrahydroisoquinolin-6-yl)amino)-5-(trifluoromethyl)pyrimidin-4-yl)-3,4-dihydro-2H-thieno[3,2-f][1,5,2]dithiazepine 1,1,5,5-tetraoxide] was run?
A: ≤ 5 nM

Q: How did the IC50 turn out when `O=C1c2sc(-c3nc(Nc4cc5c(cc4C4CC4)CN(CCOC(F)(F)F)CC5)ncc3C(F)(F)F)cc2S(=O)(=O)CCN1C1COC1` [Example 312, 7-(2-((7-cyclopropyl-2-(2-(trifluoromethoxy)ethyl)-1,2,3,4-tetrahydroisoquinolin-6-yl)amino)-5-(trifluoromethyl)pyrimidin-4-yl)-4-(oxetan-3-yl)-3,4-dihydrothieno[2,3-f][1,4]thiazepin-5(2H)-one 1,1-dioxide] was run?
A: 5 to 10 nM

Q: `CN1[C@@H]2CC[C@H]1CN(c1ccc(Nc3ncc(C(F)(F)F)c(-c4cc5c(s4)C(=O)N(C4CC4)CCS5(=O)=O)n3)c(C3CC3)c1)C2` [Example 313, 4-cyclopropyl-7-(2-((2-cyclopropyl-4-((1R,5S)-8-methyl-3,8-diazabicyclo[3.2.1]octan-3-yl)phenyl)amino)-5-(trifluoromethyl)pyrimidin-4-yl)-3,4-dihydrothieno[2,3-f][1,4]thiazepin-5(2H)-one 1,1-dioxide] was tested. Which IC50 did it give?
A: ≤ 5 nM

Q: With `O=C1c2sc(-c3nc(Nc4cc5c(cc4C4CC4)CN(CCOC(F)(F)F)CC5)ncc3C(F)(F)F)cc2S(=O)(=O)CCN1C1CC1` [Example 314, 4-cyclopropyl-7-(2-((7-cyclopropyl-2-(2-(trifluoromethoxy)ethyl)-1,2,3,4-tetrahydroisoquinolin-6-yl)amino)-5-(trifluoromethyl)pyrimidin-4-yl)-3,4-dihydrothieno[2,3-f][1,4]thiazepin-5(2H)-one 1,1-dioxide] as the compound, how does the IC50 read?
A: 10 to 50 nM

Q: How did the IC50 turn out when `C[C@@H]1CN(c2ccc(Nc3ncc(C(F)(F)F)c(-c4cc5c(s4)C(=O)N(C4COC4)CCS5(=O)=O)n3)c(C3CC3)c2)CCN1` [Example 315, (R)-7-(2-((2-cyclopropyl-4-(3-methylpiperazin-1-yl)phenyl)amino)-5-(trifluoromethyl)pyrimidin-4-yl)-4-(oxetan-3-yl)-3,4-dihydrothieno[2,3-f][1,4]thiazepin-5(2H)-one 1,1-dioxide] was run?
A: ≤ 5 nM

Q: Which IC50 does the source give for `C[C@@H]1CN(c2ccc(Nc3ncc(C(F)(F)F)c(-c4cc5c(s4)C(=O)N(C4COC4)CCS5(=O)=O)n3)c(C3CC3)c2)CCN1C` [Example 316, (R)-7-(2-((2-cyclopropyl-4-(3,4-dimethylpiperazin-1-yl)phenyl)amino)-5-(trifluoromethyl)pyrimidin-4-yl)-4-(oxetan-3-yl)-3,4-dihydrothieno[2,3-f][1,4]thiazepin-5(2H)-one 1,1-dioxide] here?
A: ≤ 5 nM

Q: With `CN1C[C@@H]2C[C@H]1CN2c1ccc(Nc2ncc(C(F)(F)F)c(-c3cc4c(s3)C(=O)N(C3COC3)CCS4(=O)=O)n2)c(C2CC2)c1` [Example 317, 7-(2-((2-cyclopropyl-4-((1S,4S)-5-methyl-2,5-diazabicyclo[2.2.1]heptan-2-yl)phenyl)amino)-5-(trifluoromethyl)pyrimidin-4-yl)-4-(oxetan-3-yl)-3,4-dihydrothieno[2,3-f][1,4]thiazepin-5(2H)-one 1,1-dioxide] as the compound, how does the IC50 read?
A: ≤ 5 nM

Q: `O=C1c2sc(-c3nc(Nc4ccc(N5C[C@H]6CC[C@@H](C5)N6)cc4C4CC4)ncc3C(F)(F)F)cc2S(=O)(=O)CCN1C1COC1` [Example 318, 7-(2-((4-((1R,5S)-3,8-diazabicyclo[3.2.1]octan-3-yl)-2-cyclopropylphenyl)amino)-5-(trifluoromethyl)pyrimidin-4-yl)-4-(oxetan-3-yl)-3,4-dihydrothieno[2,3-f][1,4]thiazepin-5(2H)-one 1,1-dioxide] was tested. Which IC50 did it give?
A: ≤ 5 nM

Q: `CCc1cc(N2C[C@@H]3C[C@H]2CN3)ccc1Nc1ncc(C(F)(F)F)c(-c2cc3c(s2)C(=O)N(C2CC2)CCS3(=O)=O)n1` [Example 319, 7-(2-((4-((1S,4S)-2,5-diazabicyclo[2.2.1]heptan-2-yl)-2-ethylphenyl)amino)-5-(trifluoromethyl)pyrimidin-4-yl)-4-cyclopropyl-3,4-dihydrothieno[2,3-f][1,4]thiazepin-5(2H)-one 1,1-dioxide] was tested. Which IC50 did it give?
A: ≤ 5 nM

Q: For `CN1[C@@H]2CC[C@H]1CN(c1ccc(Nc3ncc(C(F)(F)F)c(-c4cc5c(s4)C(=O)N(C4COC4)CCS5(=O)=O)n3)c(C3CC3)c1)C2` [Example 320, 7-(2-((2-cyclopropyl-4-((1R,5S)-8-methyl-3,8-diazabicyclo[3.2.1]octan-3-yl)phenyl)amino)-5-(trifluoromethyl)pyrimidin-4-yl)-4-(oxetan-3-yl)-3,4-dihydrothieno[2,3-f][1,4]thiazepin-5(2H)-one 1,1-dioxide], which IC50 is on record?
A: ≤ 5 nM
